US6737383B1, “Herbicidal oxadiazolidines” (priority 1999, dated 2004)

Experiments:
[1] = system: crabgrass; test: Test B pre/postemergence crabgrass; assay type: in vivo, Digitaria sanguinalis
In short: (§1)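 Test chemicals in a non-phytotoxic solvent mixture with surfactant were sprayed preemergence onto planted seeds and postemergence onto plants 2 to 18 cm tall (1- to 4-leaf stage). After twelve to sixteen days in a greenhouse, injury was visually rated against untreated controls from 0 (no effect) to 10 (complete control).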

[2] = system: soybean; test: Test B pre/postemergence soybean; assay type: in vivo, Glycine max
In short: as §1

[3] = system: wild oat; test: Test B pre/postemergence wild oat; assay type: in vivo, Avena fatua
In short: as §1

[4] = system: blackgrass; test: Test B pre/postemergence blackgrass; assay type: in vivo, Alopecurus myosuroides
In short: as §1

[5] = system: purple nutsedge; test: Test B pre/postemergence purple nutsedge; assay type: in vivo, Cyperus rotundus
In short: as §1

[6] = system: rape; test: Test B pre/postemergence rape; assay type: in vivo, Brassica napus
In short: as §1

[7] = system: corn; test: Test B pre/postemergence corn; assay type: in vivo, Zea mays
In short: as §1

[8] = system: rice; test: Test B flood test rice; assay type: in vivo, Oryza sativa
In short: (§2)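 Each value is a visual injury score relative to controls, with 10 meaning complete control and 0 no effect. Evaluation took place twelve to sixteen days after the 2-leaf-stage plants were treated and kept in the greenhouse.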

[9] = system: surinam grass; test: Test B pre/postemergence surinam grass; assay type: in vivo, Brachiaria decumbens
In short: as §1

[10] = system: wheat; test: Test B pre/postemergence wheat; assay type: in vivo, Triticum aestivum
In short: as §1

[11] = system: velvetleaf; test: Test B pre/postemergence velvetleaf; assay type: in vivo, Abutilon theophrasti
In short: as §1

[12] = system: sugar beet; test: Test B pre/postemergence sugar beet; assay type: in vivo, Beta vulgaris
In short: as §1

[13] = system: cocklebur; test: Test B pre/postemergence cocklebur; assay type: in vivo, Xanthium strumarium
In short: as §1

[14] = system: smallflower flatsedge; test: Test B flood test smallflower flatsedge; assay type: in vivo, Cyperus difformis
In short: as §2

[15] = system: bamyardgrass; test: Test B flood test barnyardgrass; assay type: in vivo, Echinochloa crus-galli
In short: as §2

[16] = system: duck salad; test: Test B flood test duck salad; assay type: in vivo, Heteranthera limosa
In short: as §2

[17] = Postemergence, Rate 250 g/ha, scale 0 to 10
[18] = Postemergence, Rate 500 g/ha, scale of 0 to 10 where 0 is no effect and 10 is complete control
[19] = Preemergence, Rate 62 g/ha, scale of 0 to 10 where 0 is no effect and 10 is complete control
[20] = Preemergence, Rate 125 g/ha, scale of 0 to 10 where 0 is no effect and 10 is complete control
[21] = Preemergence, Rate 250 g/ha, scale 0 to 10, 0 is no effect, 10 is complete control
[22] = Preemergence, Rate 500 g/ha, scale 0 to 10, 0 is no effect, 10 is complete control
[23] = Rate 62 g/ha, Postemergence, scale 0 to 10, 0 no effect, 10 complete control
[24] = Rate 125 g/ha, Postemergence, scale 0 to 10, 0 is no effect, 10 is complete control
[25] = Rate 62 g/ha, flood test species, Pre-emergence, visual evaluation after twelve to sixteen days
[26] = Rate 125 g/ha, under heading Pre-emergence, flood test species, visual evaluation after twelve to sixteen days
[27] = Rate 250 g/ha, Pre-emergence (flood test species), scale 0 to 10, 0 is no effect, 10 is complete control
[28] = Rate 500 g/ha, Pre-emergence, flood test species, scale 0 to 10 (0 no effect, 10 complete control)

COC(C)n1c(=O)on(C(=O)N(c2ccc(F)cc2)C(C)C)c1=O (stereo not shown) [Compound 439]
0: Crabgrass plant response rating [1, 17] | Crabgrass plant response rating [1, 18] | Plant response rating, Crabgrass [1, 19] | Plant response rating, Crabgrass [1, 20] | Crabgrass plant response rating [1, 21] | Crabgrass plant response rating [1, 22] | Crabgrass plant response rating [1, 23] | Crabgrass plant response rating [1, 24] | Soybean plant response rating [2, 17] | Soybean plant response rating [2, 18] | Plant response rating, Soybean [2, 19] | Plant response rating, Soybean [2, 20] | Soybean plant response rating [2, 21] | Soybean plant response rating [2, 22] | Soybean plant response rating [2, 23] | Soybean plant response rating [2, 24] | Wild oats plant response rating [3, 17] | Wild oats plant response rating [3, 18] | Plant response rating, Wild oats [3, 19] | Plant response rating, Wild oats [3, 20] | Wild oats plant response rating [3, 21] | Wild oats plant response rating [3, 22] | Wild oats plant response rating [3, 23] | Wild oats plant response rating [3, 24] | Blackgrass plant response rating [4, 17] | Blackgrass plant response rating [4, 18] | Plant response rating, Blackgrass [4, 19] | Plant response rating, Blackgrass [4, 20] | Blackgrass plant response rating [4, 21] | Blackgrass plant response rating [4, 22] | Blackgrass plant response rating [4, 23] | Blackgrass plant response rating [4, 24] | Nutsedge plant response rating [5, 17] | Nutsedge plant response rating [5, 18] | Plant response rating, Nutsedge [5, 19] | Plant response rating, Nutsedge [5, 20] | Nutsedge plant response rating [5, 21] | Nutsedge plant response rating [5, 22] | Nutsedge plant response rating [5, 23] | Nutsedge plant response rating [5, 24] | Rape plant response rating [6, 17] | Rape plant response rating [6, 18] | Plant response rating, Rape [6, 19] | Plant response rating, Rape [6, 20] | Rape plant response rating [6, 21] | Rape plant response rating [6, 22] | Rape plant response rating [6, 23] | Rape plant response rating [6, 24] | Corn plant response rating [7, 17] | Corn plant response rating [7, 18] | Plant response rating, Corn [7, 19] | Plant response rating, Corn [7, 20] | Corn plant response rating [7, 21] | Corn plant response rating [7, 22] | Corn plant response rating [7, 23] | Corn plant response rating [7, 24] | Plant response rating, Rice (0 to 10 scale, 0 is no effect, 10 is complete control) [8, 25] | Rice plant response rating (0 to 10 scale, 0 is no effect, 10 is complete control) [8, 26] | Rice plant response rating [8, 27] | Rice plant response rating [8, 28] | B. signalgrass plant response rating ([9]; Postemergence, Rate 250 g/ha, scale 0 to 10, 0 no effect, 10 complete control) | B. signalgrass plant response rating [9, 18] | Plant response rating, B. signalgrass [9, 19] | Plant response rating, B. signalgrass [9, 20] | B. signalgrass plant response rating [9, 21] | B. signalgrass plant response rating [9, 22] | B. signalgrass plant response rating [9, 23] | B. signalgrass plant response rating [9, 24] | Wheat plant response rating [10, 17] | Wheat plant response rating [10, 18] | Plant response rating, Wheat [10, 19] | Plant response rating, Wheat [10, 20] | Wheat plant response rating [10, 21] | Wheat plant response rating [10, 22] | Wheat plant response rating [10, 23] | Wheat plant response rating [10, 24] | Velvetleaf plant response rating [11, 17] | Velvetleaf plant response rating [11, 18] | Plant response rating, Velvetleaf [11, 19] | Plant response rating, Velvetleaf [11, 20] | Velvetleaf plant response rating [11, 21] | Velvetleaf plant response rating [11, 22] | Velvetleaf plant response rating [11, 23] | Velvetleaf plant response rating [11, 24] | Sugarbeets plant response rating [12, 17] | Sugarbeets plant response rating [12, 18] | Plant response rating, Sugarbeets [12, 19] | Plant response rating, Sugarbeets [12, 20] | Sugarbeets plant response rating [12, 21] | Sugarbeets plant response rating [12, 22] | Sugarbeets plant response rating [12, 23] | Sugarbeets plant response rating [12, 24] | Cocklebur plant response rating [13, 17] | Cocklebur plant response rating [13, 18] | Plant response rating, Cocklebur [13, 19] | Plant response rating, Cocklebur [13, 20] | Cocklebur plant response rating [13, 21] | Cocklebur plant response rating [13, 22] | Cocklebur plant response rating [13, 23] | Cocklebur plant response rating [13, 24] | Plant response rating, S. Flatsedge (0 to 10 scale, 0 is no effect, 10 is complete control) [14, 25] | S. Flatsedge plant response rating (0 to 10 scale, 0 is no effect, 10 is complete control) [14, 26] | S. Flatsedge plant response rating [14, 27] | S. Flatsedge plant response rating [14, 28] | Plant response rating, Barnyardgrass (0 to 10 scale, 0 is no effect, 10 is complete control) [15, 25] | Barnyardgrass plant response rating (0 to 10 scale, 0 is no effect, 10 is complete control) [15, 26] | Barnyardgrass plant response rating [15, 27] | Barnyardgrass plant response rating [15, 28] | Plant response rating, Ducksalad (0 to 10 scale, 0 is no effect, 10 is complete control) [16, 25] | Ducksalad plant response rating (0 to 10 scale, 0 is no effect, 10 is complete control) [16, 26] | Ducksalad plant response rating [16, 27] | Ducksalad plant response rating [16, 28]
